The values below come from patent publication US20230096766A1, “AMINO ACID HAVING FUNCTIONAL GROUP CAPABLE OF INTERMOLECULAR HYDROGEN BONDING, PEPTIDE COMPOUND CONTAINING SAME AND METHOD FOR PRODUCTION THEREOF” (Chugai Seiyaku Kabushiki Kaisha, priority 2018, published 2023).

The structures appear in SMILES notation. *1 amine or outer side, *2 acyl side, *3 side chain or, on linkers, in order; H or OH if unused. Where a SMILES comes first, the peptide text is derived from it. Bridges are numbered along the chain shown (N, C = ends). [ ]: non-standard residue; d: D form. The star is where a group is joined. dhPhe(4-CONHMe,3-OMe) = CNC(=O)c1ccc(CC[C@@H](N)C(=O)O)cc1OC; hPhe(3-OMe,4-CONHMe) = CNC(=O)c1ccc(CC[C@H](N)C(=O)O)cc1OC; X1 = COc1cc(C[C@H](N[*:1])C(=O)[*:2])ccc1C(=O)NO; Glu(NHSO2Me) = CS(=O)(=O)NC(=O)CC[C@H](N)C(=O)O; NMePhe(3-Cl) = CN[C@@H](Cc1cccc(Cl)c1)C(=O)O; Tyr(3-OMe) = COc1cc(C[C@H](N)C(=O)O)ccc1O; X16 = CC(C)C(C)[C@H](N[*:1])C(=O)[*:2]; Hyp = O=C(O)[C@@H]1C[C@@H](O)CN1; NMeF = CN[C@@H](Cc1ccccc1)C(=O)O; NMeGABA = CN(CCCC(=O)[*:2])[*:1]; NMeI = CC[C@H](C)[C@H](NC)C(=O)O; NMeL = CN[C@@H](CC(C)C)C(=O)O; dNMeL = CN[C@H](CC(C)C)C(=O)O; NMeV = CN[C@H](C(=O)O)C(C)C; Piperidide = C1CCN(*)CC1; CH2CMe2OH = CC(C)(O)C*; NBuGly = CCCCNCC(=O)O; NPrGly = CCCNCC(=O)O; Ethyl(2-OH) = OCC*; X3 = C[C@H](O)C*; Sar = CNCC(=O)O; tBu = CC(C)(C)*

In general, Papp refers to the rate of passage across a membrane or cell layer, normalised by area and donor concentration. Lower therefore signals poor permeation.

The first data set is described as follows: in vitro. Conditions: human, Caco-2, Caco-2.
In turn, `CCCCN1CC(=O)N(C)[C@@H](Cc2cccc(Cl)c2)C(=O)N[C@@H](CCC(=O)NS(C)(=O)=O)C(=O)N(C)[C@@H](CC(C)C)C(=O)N[C@@H]([C@@H](C)O)C(=O)N(CCCC)CC(=O)N(C)[C@@H](Cc2ccccc2)C(=O)N(C)[C@@H](CC(C)C)C(=O)N[C@@H](CC(C)C)C(=O)N(C)[C@@H](CC(C)C)C(=O)N[C@H](C(=O)N2CCCCC2)CC1=O` [pd66] ([NBuGly][NMePhe(3-Cl)][Glu(NHSO2Me)][NMeL]T[NBuGly][NMeF][NMeL]L[NMeL]D-Piperidide; lactam N-11) gave a Papp of 0.09 ×10⁻⁶ cm/s.

Still in this data set, the particulars now being: human, Caco-2, Caco-2 (cm/sec).
With `CC[C@H](C)[C@H]1C(=O)N[C@@H]([C@@H](C)O)C(=O)N(C)CC(=O)N(C)[C@@H](C)C(=O)N[C@H](C(=O)N2CCCCC2)CC(=O)N(C)[C@@H](C)C(=O)N[C@@H](C(C)C)C(=O)N(C)[C@@H](CC(C)C)C(=O)N(C)[C@@H](Cc2ccccc2)C(=O)NC(COc2cccc(Cl)c2)C(=O)N(C)[C@@H](Cc2ccccc2)C(=O)N1C` (stereo partly drawn) [pd186], the Papp came out at 1.8 ×10⁻⁶ cm/s. On the same count and under the same terms, the figure for `CCCCN1CC(=O)N(C)[C@@H](CC(C)C)C(=O)N[C@@H](COC(C)(C)C)C(=O)N(C)[C@@H](Cc2ccccc2)C(=O)N(C)[C@@H](CC(C)C)C(=O)N[C@H](C(=O)N2CCCCC2)CC(=O)N[C@H](C(C)C)C(=O)N(C)[C@@H](C(C)C)C(=O)N[C@@H](Cc2ccc(C(=O)NO)c(OC)c2)C(=O)N(C)[C@@H](CC(C)C)C(=O)N[C@@H]([C@@H](C)O)C1=O` [AP256] ([dV][NMeV][X1][NMeL]T[NBuGly][NMeL]S(tBu)[NMeF][NMeL]D-Piperidide; lactam N-11) is 0.08 ×10⁻⁶ cm/s; for `CC[C@H](C)[C@@H]1NC(=O)[C@H](CC(C)C)N(C)C(=O)CCCN(C)C(=O)C[C@@H](C(=O)N2CCCCC2)NC(=O)[C@H](CC(C)C)N(C)C(=O)[C@H](CC(C)C)N(C)C(=O)[C@H]([C@@H](C)O)NC(=O)[C@H](CC(C)C)N(C)C(=O)[C@@H](CCc2ccc(C(=O)NC)c(OC)c2)NC(=O)[C@H](CC(C)C)N(C)C(=O)[C@H](Cc2ccccc2)N(C)C1=O` [AP210] ([NMeGABA][NMeL]I[NMeF][NMeL][dhPhe(4-CONHMe,3-OMe)][NMeL]T[NMeL][NMeL]D-Piperidide; lactam N-11) it is 0.34 ×10⁻⁶ cm/s.

As for `CC[C@H](C)[C@@H]1NC(=O)[C@H](CC(C)C)N(C)C(=O)[C@@H]2C[C@@H](OCCO)CN2C(=O)[C@H]([C@@H](C)O)NC(=O)[C@H](CC(C)C)N(C)C(=O)[C@H](CC(C)C)NC(=O)[C@H](C(C)C(C)C)NC(=O)[C@@H](CC(C)C)N(C)C(=O)C[C@@H](C(=O)N2CCCCC2)NC(=O)[C@H](CC(C)C)NC(=O)[C@H](CC(C)C)N(C)C1=O` (stereo partly drawn) [AP233] ([dNMeL][X16]L[NMeL]T[Hyp](Ethyl(2-OH))[NMeL]I[NMeL]LD-Piperidide; lactam N-11), the Papp is 3 ×10⁻⁶ cm/s. Still for that read-out and setting: the figure for `CC[C@H](C)[C@@H]1NC(=O)[C@H](CC(C)C)N(C)C(=O)CCCN(C)C(=O)C[C@@H](C(=O)N2CCCCC2)NC(=O)[C@H](CC(C)C)N(C)C(=O)[C@H](CC(C)C)N(C)C(=O)[C@H]([C@@H](C)O)NC(=O)[C@H](CC(C)C)N(C)C(=O)[C@H](COC[C@H](C)O)NC(=O)[C@H](Cc2cccc(Cl)c2)N(C)C(=O)[C@H](Cc2ccccc2)N(C)C1=O` [AP64] ([NMeGABA][NMeL]I[NMeF][NMePhe(3-Cl)]S(X3)[NMeL]T[NMeL][NMeL]D-Piperidide; lactam N-11) is 0.35 ×10⁻⁶ cm/s; for `CCCCN1CC(=O)N[C@@H](CC(C)C)C(=O)N2CCC[C@H]2C(=O)N(C)[C@@H](C(C)C)C(=O)N[C@@H](CCc2ccc(C(=O)NC)c(OC)c2)C(=O)N(C)[C@@H](Cc2ccccc2)C(=O)N(C)[C@@H](CC(C)C)C(=O)N[C@@H](CC(C)C)C(=O)N(C)[C@@H]([C@@H](C)CC)C(=O)N[C@H](C(=O)N2CCCCC2)CC(=O)N[C@H](C(C)C)C(=O)N[C@@H]([C@@H](C)O)C1=O` [AP265] ([dV]T[NBuGly]LP[NMeV][hPhe(3-OMe,4-CONHMe)][NMeF][NMeL]L[NMeI]D-Piperidide; lactam N-12) it is 0.46 ×10⁻⁶ cm/s; for `COc1cc(C[C@@H]2NC(=O)[C@H](CC(C)C)N(C)C(=O)CCCN(C)C(=O)C[C@@H](C(=O)N3CCCCC3)NC(=O)[C@H](CC(C)C)N(C)C(=O)[C@H](CC(C)C)N(C)C(=O)[C@H]([C@@H](C)O)NC(=O)[C@H](CC(C)C)N(C)C(=O)[C@H](COC(C)(C)C)NC(=O)[C@H](Cc3ccccc3)N(C)C(=O)[C@H](CC(C)C)N(C)C2=O)ccc1O` [Compound E04] ([NMeGABA][NMeL][Tyr(3-OMe)][NMeL][NMeF]S(tBu)[NMeL]T[NMeL][NMeL]D-Piperidide; lactam N-11) it is 0.4 ×10⁻⁶ cm/s. The same measure, in the same setting: the figure for `CCCN1CC(=O)N(C)[C@@H](Cc2ccccc2)C(=O)N(C)[C@@H](CC(C)C)C(=O)N[C@@H](COCC(C)(C)O)C(=O)N(C)[C@@H](CC(C)C)C(=O)N[C@H](C(=O)N2CCCCC2)CC(=O)N(C)CC(=O)N(C)[C@@H](Cc2ccccc2)C(=O)N[C@@H]([C@@H](C)CC)C(=O)N(C)[C@@H](CC(C)C)C(=O)N[C@@H]([C@@H](C)O)C1=O` [AP08] ([Sar][NMeF]I[NMeL]T[NPrGly][NMeF][NMeL]S(CH2CMe2OH)[NMeL]D-Piperidide; lactam N-11) is 0.67 ×10⁻⁶ cm/s.
